Data published in the supplement of paper PMC10307832.

Tests used:
Assay in all cases: relative viability (nuclei count vs DMSO), 5 days (fraction); higher = more cells survive
CAP-232 = compound: C[C@H]([C@@H](C(=O)N)NC(=O)[C@@H]1CSSC[C@@H](C(=O)N[C@H](C(=O)N[C@@H](C(=O)N[C@H](C(=O)N1)CCCCN)CC2=CNC3=CC=CC=C32)CC4=CC=C(C=C4)O)NC(=O)[C@@H](CC5=CC=CC=C5)N)O [CAP-232]
How it was run: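 Viability here means nuclei in treated wells divided by nuclei in vehicle wells, reported as the median across plates. Only plates with control CV below 25% and at least one doubling passed. Lung cancer cell lines in 1536-well plates were exposed to five √10-spaced library-drug doses for 5 days and counted from 4× Hoechst images in MetaXpress.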

CAP-232 + Crizotinib = compound: C[C@H]([C@@H](C(=O)N)NC(=O)[C@@H]1CSSC[C@@H](C(=O)N[C@H](C(=O)N[C@@H](C(=O)N[C@H](C(=O)N1)CCCCN)CC2=CNC3=CC=CC=C32)CC4=CC=C(C=C4)O)NC(=O)[C@@H](CC5=CC=CC=C5)N)O [CAP-232] + C[C@@H](Oc1cc(-c2cnn(C3CCNCC3)c2)cnc1N)c1c(Cl)ccc(F)c1Cl [Crizotinib] (partner 1 µM)
How it was run: (§1)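 Relative viability divides the nuclei count in treated wells by that in vehicle wells. Lung cancer cell lines were seeded in 1536-well plates, dosed by pin tool the next day, and fixed and stained after 5 days in one step with final 0.05% Triton X-100, 1% formaldehyde and 1 ug/ml Hoechst. Dosing was a single drug or a fixed anchor-drug dose plus five library-drug doses (not always all listed) in √10 steps, and values are medians of duplicate plates imaged at 4×.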

CAP-232 + Olaparib = compound: C[C@H]([C@@H](C(=O)N)NC(=O)[C@@H]1CSSC[C@@H](C(=O)N[C@H](C(=O)N[C@@H](C(=O)N[C@H](C(=O)N1)CCCCN)CC2=CNC3=CC=CC=C32)CC4=CC=C(C=C4)O)NC(=O)[C@@H](CC5=CC=CC=C5)N)O [CAP-232] + O=C(c1cc(Cc2n[nH]c(=O)c3ccccc23)ccc1F)N1CCN(C(=O)C2CC2)CC1 [Olaparib] (partner 8 µM)
How it was run: as §1

CAP-232 + Alpelisib = compound: C[C@H]([C@@H](C(=O)N)NC(=O)[C@@H]1CSSC[C@@H](C(=O)N[C@H](C(=O)N[C@@H](C(=O)N[C@H](C(=O)N1)CCCCN)CC2=CNC3=CC=CC=C32)CC4=CC=C(C=C4)O)NC(=O)[C@@H](CC5=CC=CC=C5)N)O [CAP-232] + Cc1nc(NC(=O)N2CCC[C@H]2C(N)=O)sc1-c1ccnc(C(C)(C)C(F)(F)F)c1 [Alpelisib] (partner 2 µM)
How it was run: as §1

CAP-232 + Dasatinib = compound: C[C@H]([C@@H](C(=O)N)NC(=O)[C@@H]1CSSC[C@@H](C(=O)N[C@H](C(=O)N[C@@H](C(=O)N[C@H](C(=O)N1)CCCCN)CC2=CNC3=CC=CC=C32)CC4=CC=C(C=C4)O)NC(=O)[C@@H](CC5=CC=CC=C5)N)O [CAP-232] + Cc1nc(Nc2ncc(C(=O)Nc3c(C)cccc3Cl)s2)cc(N2CCN(CCO)CC2)n1 [Dasatinib] (partner 0.075 µM)
How it was run: as §1

Cell Line	relative viability (CAP-232; 0.4 µM)	relative viability (CAP-232; 1.265 µM)	relative viability (CAP-232; 4 µM)	relative viability (CAP-232; 12.65 µM)	relative viability (CAP-232 + Crizotinib; first compound 0.4 µM)	relative viability (CAP-232 + Crizotinib; first compound 1.265 µM)	relative viability (CAP-232 + Crizotinib; first compound 4 µM)	relative viability (CAP-232 + Crizotinib; first compound 12.65 µM)	relative viability (CAP-232 + Olaparib; first compound 0.4 µM)	relative viability (CAP-232 + Olaparib; first compound 1.265 µM)	relative viability (CAP-232 + Olaparib; first compound 4 µM)	relative viability (CAP-232 + Olaparib; first compound 12.65 µM)	relative viability (CAP-232 + Alpelisib; first compound 0.4 µM)	relative viability (CAP-232 + Alpelisib; first compound 1.265 µM)	relative viability (CAP-232 + Alpelisib; first compound 4 µM)	relative viability (CAP-232 + Alpelisib; first compound 12.65 µM)	relative viability (CAP-232 + Dasatinib; first compound 0.4 µM)	relative viability (CAP-232 + Dasatinib; first compound 1.265 µM)	relative viability (CAP-232 + Dasatinib; first compound 4 µM)	relative viability (CAP-232 + Dasatinib; first compound 12.65 µM)
NCI-H661	0.948	1.04	1.04	0.984	1	0.947	1.05	1.13	0.768	0.771	0.8	0.683	0.594	0.382	0.913	0.596	0.971	0.663	0.96	0.648
NCI-H727	0.746	0.938	0.955	0.913	–	0.757	1.04	0.82	0.705	0.613	0.757	0.648	–	0.59	0.633	0.59	0.301	0.362	0.38	0.335
NCI-H838	1.03	0.943	1.05	0.757	1.03	0.804	0.981	0.65	0.883	0.808	0.836	0.705	1.08	0.944	1.12	0.644	0.364	0.249	0.403	0.25
NCI-H1355	1.09	0.987	1.13	0.95	1.02	1.01	1.22	1.27	0.737	0.747	0.769	0.703	0.845	0.842	0.963	0.864	0.847	0.736	0.618	0.5
NCI-H1437	0.996	1.01	1.03	0.895	1.11	0.927	1.05	0.81	0.64	0.629	0.665	0.607	0.901	1.04	1.05	0.768	0.547	0.343	0.358	0.416
NCI-H1651	1.04	0.954	1.01	0.773	0.861	0.856	0.918	0.904	0.196	0.184	0.2	0.214	1.01	0.841	1.08	0.728	0.357	0.395	0.465	0.33
NCI-H1666	0.927	0.913	1.02	0.871	1.03	–	0.829	0.852	0.819	0.75	0.816	0.664	0.991	–	1.05	0.816	0.904	0.757	0.893	0.678
NCI-H1734	0.97	0.981	1.05	0.936	0.674	0.577	0.758	0.65	0.596	0.609	0.605	0.512	0.611	0.662	0.755	0.702	0.45	0.459	0.461	0.446
NCI-H1755	1.04	0.964	1.1	0.918	0.988	0.778	0.976	0.747	0.911	0.881	0.935	0.824	0.984	0.91	1.1	0.763	0.358	0.461	0.48	0.372
NCI-H1792	1.44	0.775	0.878	0.777	1.37	1.02	0.834	0.722	0.51	0.642	0.623	0.235	0.825	0.823	0.819	0.399	0.811	0.743	0.95	0.78
NCI-H1915	1.09	0.948	1.08	1.07	1.04	0.915	1.04	0.961	0.243	0.248	0.249	0.267	1.05	1.02	1.04	1.06	0.326	0.31	0.303	0.287
NCI-H1944	0.921	0.972	1.03	0.969	1.12	1.05	1.03	1.24	0.385	0.368	0.411	0.357	0.956	0.806	0.794	0.782	0.215	0.197	0.21	0.182
NCI-H1975	1.11	0.86	1.02	0.72	1.11	1.07	1.08	0.892	0.825	0.894	1.04	0.363	0.734	0.579	0.704	0.434	0.513	0.319	0.468	0.21
NCI-H1993	0.954	0.934	1.09	0.945	0.884	0.95	0.885	0.835	1.32	1.14	0.933	1.08	0.605	0.674	0.719	0.633	0.619	0.539	0.682	0.558
NCI-H2009	1.06	0.998	1	0.932	1.11	1.01	1.05	1.09	0.799	0.684	0.74	0.52	1.17	1.08	1.13	1.03	0.288	0.278	0.273	0.195
NCI-H2023	0.998	0.883	1.07	0.329	0.837	0.548	0.693	0.292	0.485	0.498	0.497	0.326	0.711	0.592	0.637	0.237	0.696	0.598	0.608	0.137
NCI-H2085	1.03	1.03	0.997	0.945	0.728	0.882	0.821	0.853	0.825	0.764	0.743	0.771	1.02	0.886	0.902	1.16	0.232	0.193	0.223	0.19
NCI-H2087	1.02	0.936	1.08	0.788	0.929	0.809	0.967	0.819	0.646	0.669	0.697	0.312	0.983	1.17	0.929	0.841	0.681	0.969	0.757	0.737
NCI-H2126	1.05	0.985	1.1	0.991	1.06	1.03	1.13	1.09	0.899	0.866	0.992	0.914	0.751	0.742	0.8	0.73	0.639	0.585	0.704	0.571
NCI-H2170	0.986	0.971	1.16	1.02	1.24	1.22	1.23	0.901	0.622	0.588	0.738	0.636	0.81	0.865	0.831	0.76	0.684	0.558	0.557	0.58
NCI-H2228	1.23	0.976	1.05	0.829	0.637	0.407	0.526	0.461	0.766	0.73	0.92	0.361	0.816	0.572	0.777	0.848	0.482	0.565	0.479	0.365
NCI-H2347	1.08	1.04	1.04	0.948	0.794	0.753	0.0086	0.544	0.651	0.528	0.606	0.598	0.966	0.993	0.986	0.995	0.28	0.285	0.342	0.292
NCI-H2405	1.01	0.972	1.05	0.786	0.76	0.848	0.876	0.843	0.836	0.957	0.831	0.53	0.623	0.924	0.683	0.396	0.233	0.203	0.196	0.208
NCI-H3122	1	1	0.984	0.957	0.274	0.313	0.308	0.277	0.664	0.656	0.847	0.546	0.735	0.76	0.838	0.84	0.781	0.804	0.847	0.833
PC-3 [JPC-3]	1.09	1.05	1.07	0.955	1.01	1.02	0.966	0.985	1.16	1.21	1.2	1.08	1.1	1.08	1.03	1.08	1.08	1.06	1.08	0.908
PC-14	1.12	0.971	1.04	0.755	1.02	0.861	0.933	0.89	0.265	0.264	0.213	0.239	1.06	0.911	1.14	0.926	0.211	0.256	0.253	0.129
RERF-LC-KJ	1.07	1	0.99	0.935	0.944	0.919	0.851	0.829	0.98	0.893	1.03	0.721	0.951	0.693	0.833	0.816	0.695	0.871	0.735	0.27
SK-LU-1	1.09	1.07	1.12	0.9	0.689	0.988	0.781	0.912	0.388	0.44	0.412	0.408	1	1.11	1.07	0.96	0.174	0.176	0.158	0.17
